From ChEMBL document CHEMBL1201862, “PubChem BioAssay data set” (2004)
Calls of active or inactive are those of the source.

Legend:
[1] = microbe, parasite or virus in culture; assay type: functional; settings: Mycobacterium tuberculosis
[2] = biological target: T1, Calpain-2 catalytic subunit (Sus scrofa, UniProt P43367); test: m-calpain protease blockers, concentration series – biochemical, fluorogenic peptide substrate, dose response (AID 1420); assay type: functional
T1 sequence (P43367 whole entry): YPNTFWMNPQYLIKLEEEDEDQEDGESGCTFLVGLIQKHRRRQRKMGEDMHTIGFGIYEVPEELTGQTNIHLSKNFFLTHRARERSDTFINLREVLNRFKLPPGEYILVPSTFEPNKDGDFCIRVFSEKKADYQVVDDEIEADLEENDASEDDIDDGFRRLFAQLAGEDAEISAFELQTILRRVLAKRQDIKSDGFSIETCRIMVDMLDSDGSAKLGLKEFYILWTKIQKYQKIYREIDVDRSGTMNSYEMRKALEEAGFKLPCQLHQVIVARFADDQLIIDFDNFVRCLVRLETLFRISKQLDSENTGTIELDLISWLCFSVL

[3] = THP-1 cell cytotoxicity, dose response, cytotoxicity control for non-replicating M. tuberculosis project (AID 489025); assay type: functional
[4] = Luminescence Cell-Based Dose Retest to Confirm Inhibitors of Cancer Stem Cells. [Related pubchem assays (depositor defined):AID2717, AID2721]; assay type: functional; settings: Homo sapiens
[5] = HepG2 cell cytotoxicity, dose response, cytotoxicity control for non-replicating M. tuberculosis project (AID 489018); assay type: functional; settings: Mycobacterium tuberculosis
[6] = Vero E6 cell cytotoxicity, dose response, cytotoxicity control for non-replicating M. tuberculosis project, secondary assay (AID 492998); assay type: functional, VeroE6; settings: Vero C1008
[7] = biological target: Neurotensin receptor type 1 (Homo sapiens, UniProt P30989); assay type: functional;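 also: Image-based confirmatory dose-response assay measuring agonist activity at NTR1; NTR1-expressing U2OS osteosarcoma cells imaged for beta-arrestin GFP spot formation; agonist potency where compounds increase beta-arrestin recruitment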
[8] = biological target: T2, Microphthalmia-associated transcription factor (Homo sapiens, UniProt O75030); test: reducers of TRPM1 reporter luminescence, concentration series – cell-based, SK-MEL-5, cherry-picked, set 3, MITF inhibitor project, dose response (AID 493073); assay type: functional;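 also: SK-MEL-5 melanoma cells with luciferase driven by the MITF target TRPM1 promoter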
T2 sequence (O75030 whole entry): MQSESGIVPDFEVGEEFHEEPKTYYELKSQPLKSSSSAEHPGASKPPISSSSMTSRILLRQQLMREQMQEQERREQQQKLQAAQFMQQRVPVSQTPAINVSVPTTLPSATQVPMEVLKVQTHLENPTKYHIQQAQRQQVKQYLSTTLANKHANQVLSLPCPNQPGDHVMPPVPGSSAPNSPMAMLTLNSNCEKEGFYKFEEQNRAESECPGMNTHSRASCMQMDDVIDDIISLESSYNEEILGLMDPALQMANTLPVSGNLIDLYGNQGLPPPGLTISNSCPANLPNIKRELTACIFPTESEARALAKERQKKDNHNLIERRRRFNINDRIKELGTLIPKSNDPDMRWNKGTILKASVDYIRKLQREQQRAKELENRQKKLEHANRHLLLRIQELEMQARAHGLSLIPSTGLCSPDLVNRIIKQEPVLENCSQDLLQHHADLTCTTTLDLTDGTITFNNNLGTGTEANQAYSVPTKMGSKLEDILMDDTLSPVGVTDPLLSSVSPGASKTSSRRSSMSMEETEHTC

cells = assay type: functional
A-375 = test: proliferation inhibition in MITF-low A375 cells – cell-based, cherry-pick samples, set 2, counter-screen for MITF modulator project, dose response (AID 540335); assay type: functional; settings: Homo sapiens
Paired box protein Pax-8 = Paired box protein Pax-8 (Homo sapiens, UniProt Q06710); test: PAX8 transcriptional activity inhibition in RMG-I – RMG-I cells, luciferase, cherry-pick, dose response (AID 687027); assay type: functional, cell-based;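 also: luciferase reporter driven by Pax8 target thyroperoxidase promoter measured by SteadyGlo luminescence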
[9] = potency of ADAM10 substrate cleavage blockers – biochemical, QFRET, dose response (AID 743254);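 also: ADAM10 enzyme with the DM2 quenched FRET peptide as substrate; EDANS fluorescence gain as the protease cuts the substrate; inhibitor potency against ADAM10 proteolytic activity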
[10] = A549 cell cytotoxicity, dose response, cytotoxicity control, plate reader, cherry-pick, antagonist series (AID 743412); assay type: functional, cell-based
[11] = toxicity toward HepG2 liver cells – cell-based, plate reader, cherry-pick, antagonist series, cytotoxicity control, dose response (AID 743416); assay type: functional
[12] = blockers of bursicon-stimulated LGR2 cAMP reporter – cell-based, HEK293, CRE-luciferase reporter, cherry pick, set 2, dose response (AID 743343); assay type: functional;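 also: transfected cells were stimulated with diluted bursicon conditioned medium after compound addition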
[13] = general cell-killing toxicity readout – plate reader, dry powder samples, cytotoxicity control for PAX8 inhibitor project, dose response (AID 743021); assay type: functional, cell-based
[14] = blockade of melanocortin 4 receptor signaling – cell-based, plate reader, cherry pick, counter-screen for LGR2 antagonist project, dose response (AID 743444); assay type: functional;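 also: transfected HEK 293 cells stimulated with alpha-MSH peptide; potency of inhibitors of the alpha-MSH evoked signal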
[15] = biological target: Disintegrin and metalloproteinase domain-containing protein 17 (Homo sapiens, UniProt P78536); test: inhibition of ADAM17 substrate cleavage – biochemical, quenched FRET substrate, counter-screen for ADAM10 exosite inhibitor project, dose response (AID 743253)
[16] = viability loss in HEK293 cells – cell-based, plate reader, cherry-picked samples, cytotoxicity control, dose response (AID 743446); assay type: functional
Caspase-3 = biological target: T3, Caspase-3 (Homo sapiens, UniProt P42574); test: activators of human procaspase-3 D3A mutant – biochemical, absorbance, PC-3 D3A mutant, counter-screen for dual procaspase-3/7 activator project, dose response (AID 504328)
T3 sequence (P42574 whole entry): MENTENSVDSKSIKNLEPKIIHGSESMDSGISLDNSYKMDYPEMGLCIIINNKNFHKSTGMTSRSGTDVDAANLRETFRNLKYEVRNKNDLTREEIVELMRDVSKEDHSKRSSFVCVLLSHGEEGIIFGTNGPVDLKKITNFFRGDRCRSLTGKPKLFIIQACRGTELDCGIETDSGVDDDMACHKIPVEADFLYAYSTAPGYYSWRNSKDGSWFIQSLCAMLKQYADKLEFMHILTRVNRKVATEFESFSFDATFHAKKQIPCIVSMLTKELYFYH

Caspase-7 = Caspase-7 (Homo sapiens, UniProt P55210); test: potency of procaspase-7 enzyme activation – biochemical, absorbance, human, dual procaspase-3/-7 activator project, dose response (AID 504330)
Prothrombin = Prothrombin (Homo sapiens, UniProt P00734); test: Thrombin 1536 HTS Dose Response Confirmation. [Related pubchem assays: 1046 (Thrombin 1536 HTS; hits were confirmed in this assay)]; assay type: functional
[17] = biological target: T4, Voltage-dependent T-type calcium channel subunit alpha-1H (Homo sapiens, UniProt O95180); assay type: functional
[18] = biological target: T5, Short transient receptor potential channel 4 (Mus musculus, UniProt Q9QUQ5); test: block of DAMGO-driven TRPC4 calcium entry – cell-based, HEK293 TRPC4/mu-opioid, Fluo-4 calcium, dose response (AID 434942); assay type: functional;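 also: potency of inhibitors blocking the TRPC4 calcium response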
T5 sequence (Q9QUQ5 whole entry): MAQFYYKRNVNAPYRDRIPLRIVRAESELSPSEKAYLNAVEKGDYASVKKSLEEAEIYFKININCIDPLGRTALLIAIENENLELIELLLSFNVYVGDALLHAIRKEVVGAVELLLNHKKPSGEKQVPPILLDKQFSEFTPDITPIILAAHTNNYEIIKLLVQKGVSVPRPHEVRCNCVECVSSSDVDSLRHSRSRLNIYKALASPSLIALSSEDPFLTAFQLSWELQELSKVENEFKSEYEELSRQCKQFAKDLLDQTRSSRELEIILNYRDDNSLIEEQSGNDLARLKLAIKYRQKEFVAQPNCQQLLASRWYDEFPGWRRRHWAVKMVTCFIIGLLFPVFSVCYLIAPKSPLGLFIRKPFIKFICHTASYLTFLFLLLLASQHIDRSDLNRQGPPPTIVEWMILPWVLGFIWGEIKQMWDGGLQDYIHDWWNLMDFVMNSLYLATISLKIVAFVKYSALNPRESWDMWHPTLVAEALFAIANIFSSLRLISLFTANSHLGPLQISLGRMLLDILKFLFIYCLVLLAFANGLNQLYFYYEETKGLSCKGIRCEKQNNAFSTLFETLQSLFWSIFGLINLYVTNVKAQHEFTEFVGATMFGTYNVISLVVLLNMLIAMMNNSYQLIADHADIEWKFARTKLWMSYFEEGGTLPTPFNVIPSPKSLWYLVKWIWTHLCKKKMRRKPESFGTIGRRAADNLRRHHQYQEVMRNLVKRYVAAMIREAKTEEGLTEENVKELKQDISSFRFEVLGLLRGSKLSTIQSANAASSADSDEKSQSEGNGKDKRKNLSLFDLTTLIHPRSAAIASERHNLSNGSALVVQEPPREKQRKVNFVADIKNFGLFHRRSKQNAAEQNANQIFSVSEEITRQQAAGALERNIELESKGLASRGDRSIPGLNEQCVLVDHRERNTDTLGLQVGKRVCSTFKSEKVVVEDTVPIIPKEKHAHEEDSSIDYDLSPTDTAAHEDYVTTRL

[19] = biological target: T4, Voltage-dependent T-type calcium channel subunit alpha-1H; test: Inhibitors of T-Type Calcium Channels. [Related pubchem assays (depositor defined):AID449739, AID463087, AID489005, AID493041, AID504579, AID504584, AID504619, AID504628]; assay type: functional
Coagulation factor XII = biological target: T6, Coagulation factor XII (Homo sapiens, UniProt P00748); assay type: functional;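 also: activated factor XIIa alpha cleaving a fluorogenic AMC peptide substrate; inhibitor potency from loss of enzyme activity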
T6 sequence (P00748 whole entry): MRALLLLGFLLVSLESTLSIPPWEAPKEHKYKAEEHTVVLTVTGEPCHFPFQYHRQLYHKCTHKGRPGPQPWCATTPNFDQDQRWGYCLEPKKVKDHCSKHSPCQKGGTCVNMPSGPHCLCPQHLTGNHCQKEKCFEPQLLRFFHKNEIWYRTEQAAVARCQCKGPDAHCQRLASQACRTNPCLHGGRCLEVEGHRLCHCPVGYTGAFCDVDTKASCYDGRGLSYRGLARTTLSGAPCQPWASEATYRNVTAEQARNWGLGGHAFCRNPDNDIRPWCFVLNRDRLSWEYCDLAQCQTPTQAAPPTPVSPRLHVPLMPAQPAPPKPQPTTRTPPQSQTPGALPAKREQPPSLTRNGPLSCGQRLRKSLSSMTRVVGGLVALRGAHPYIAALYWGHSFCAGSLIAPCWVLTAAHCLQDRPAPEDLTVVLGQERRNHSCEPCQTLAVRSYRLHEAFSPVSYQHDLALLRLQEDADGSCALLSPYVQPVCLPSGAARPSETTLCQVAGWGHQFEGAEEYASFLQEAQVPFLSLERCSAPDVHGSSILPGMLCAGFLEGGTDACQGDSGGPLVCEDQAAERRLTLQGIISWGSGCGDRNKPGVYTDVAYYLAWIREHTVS

Protein skinhead-1 = biological target: T7, Protein skinhead-1 (Caenorhabditis elegans, UniProt P34707); assay type: functional
T7 sequence (P34707 whole entry): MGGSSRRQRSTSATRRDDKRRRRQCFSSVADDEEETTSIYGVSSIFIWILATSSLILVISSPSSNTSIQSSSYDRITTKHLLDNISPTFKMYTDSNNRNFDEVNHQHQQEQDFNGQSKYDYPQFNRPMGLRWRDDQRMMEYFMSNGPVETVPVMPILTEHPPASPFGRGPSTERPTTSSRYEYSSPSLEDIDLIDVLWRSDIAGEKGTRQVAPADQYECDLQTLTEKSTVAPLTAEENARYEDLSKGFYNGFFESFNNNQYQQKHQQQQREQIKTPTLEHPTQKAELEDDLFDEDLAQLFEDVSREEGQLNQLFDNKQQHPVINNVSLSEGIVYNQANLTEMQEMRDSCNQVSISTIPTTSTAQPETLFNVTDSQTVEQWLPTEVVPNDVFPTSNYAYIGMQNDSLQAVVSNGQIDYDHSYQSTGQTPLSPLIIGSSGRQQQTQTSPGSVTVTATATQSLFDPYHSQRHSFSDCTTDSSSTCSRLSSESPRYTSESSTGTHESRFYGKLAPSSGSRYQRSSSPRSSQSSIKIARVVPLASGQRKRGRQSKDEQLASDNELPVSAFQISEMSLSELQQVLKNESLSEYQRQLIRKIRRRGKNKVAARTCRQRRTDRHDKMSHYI

T4 sequence (O95180 whole entry): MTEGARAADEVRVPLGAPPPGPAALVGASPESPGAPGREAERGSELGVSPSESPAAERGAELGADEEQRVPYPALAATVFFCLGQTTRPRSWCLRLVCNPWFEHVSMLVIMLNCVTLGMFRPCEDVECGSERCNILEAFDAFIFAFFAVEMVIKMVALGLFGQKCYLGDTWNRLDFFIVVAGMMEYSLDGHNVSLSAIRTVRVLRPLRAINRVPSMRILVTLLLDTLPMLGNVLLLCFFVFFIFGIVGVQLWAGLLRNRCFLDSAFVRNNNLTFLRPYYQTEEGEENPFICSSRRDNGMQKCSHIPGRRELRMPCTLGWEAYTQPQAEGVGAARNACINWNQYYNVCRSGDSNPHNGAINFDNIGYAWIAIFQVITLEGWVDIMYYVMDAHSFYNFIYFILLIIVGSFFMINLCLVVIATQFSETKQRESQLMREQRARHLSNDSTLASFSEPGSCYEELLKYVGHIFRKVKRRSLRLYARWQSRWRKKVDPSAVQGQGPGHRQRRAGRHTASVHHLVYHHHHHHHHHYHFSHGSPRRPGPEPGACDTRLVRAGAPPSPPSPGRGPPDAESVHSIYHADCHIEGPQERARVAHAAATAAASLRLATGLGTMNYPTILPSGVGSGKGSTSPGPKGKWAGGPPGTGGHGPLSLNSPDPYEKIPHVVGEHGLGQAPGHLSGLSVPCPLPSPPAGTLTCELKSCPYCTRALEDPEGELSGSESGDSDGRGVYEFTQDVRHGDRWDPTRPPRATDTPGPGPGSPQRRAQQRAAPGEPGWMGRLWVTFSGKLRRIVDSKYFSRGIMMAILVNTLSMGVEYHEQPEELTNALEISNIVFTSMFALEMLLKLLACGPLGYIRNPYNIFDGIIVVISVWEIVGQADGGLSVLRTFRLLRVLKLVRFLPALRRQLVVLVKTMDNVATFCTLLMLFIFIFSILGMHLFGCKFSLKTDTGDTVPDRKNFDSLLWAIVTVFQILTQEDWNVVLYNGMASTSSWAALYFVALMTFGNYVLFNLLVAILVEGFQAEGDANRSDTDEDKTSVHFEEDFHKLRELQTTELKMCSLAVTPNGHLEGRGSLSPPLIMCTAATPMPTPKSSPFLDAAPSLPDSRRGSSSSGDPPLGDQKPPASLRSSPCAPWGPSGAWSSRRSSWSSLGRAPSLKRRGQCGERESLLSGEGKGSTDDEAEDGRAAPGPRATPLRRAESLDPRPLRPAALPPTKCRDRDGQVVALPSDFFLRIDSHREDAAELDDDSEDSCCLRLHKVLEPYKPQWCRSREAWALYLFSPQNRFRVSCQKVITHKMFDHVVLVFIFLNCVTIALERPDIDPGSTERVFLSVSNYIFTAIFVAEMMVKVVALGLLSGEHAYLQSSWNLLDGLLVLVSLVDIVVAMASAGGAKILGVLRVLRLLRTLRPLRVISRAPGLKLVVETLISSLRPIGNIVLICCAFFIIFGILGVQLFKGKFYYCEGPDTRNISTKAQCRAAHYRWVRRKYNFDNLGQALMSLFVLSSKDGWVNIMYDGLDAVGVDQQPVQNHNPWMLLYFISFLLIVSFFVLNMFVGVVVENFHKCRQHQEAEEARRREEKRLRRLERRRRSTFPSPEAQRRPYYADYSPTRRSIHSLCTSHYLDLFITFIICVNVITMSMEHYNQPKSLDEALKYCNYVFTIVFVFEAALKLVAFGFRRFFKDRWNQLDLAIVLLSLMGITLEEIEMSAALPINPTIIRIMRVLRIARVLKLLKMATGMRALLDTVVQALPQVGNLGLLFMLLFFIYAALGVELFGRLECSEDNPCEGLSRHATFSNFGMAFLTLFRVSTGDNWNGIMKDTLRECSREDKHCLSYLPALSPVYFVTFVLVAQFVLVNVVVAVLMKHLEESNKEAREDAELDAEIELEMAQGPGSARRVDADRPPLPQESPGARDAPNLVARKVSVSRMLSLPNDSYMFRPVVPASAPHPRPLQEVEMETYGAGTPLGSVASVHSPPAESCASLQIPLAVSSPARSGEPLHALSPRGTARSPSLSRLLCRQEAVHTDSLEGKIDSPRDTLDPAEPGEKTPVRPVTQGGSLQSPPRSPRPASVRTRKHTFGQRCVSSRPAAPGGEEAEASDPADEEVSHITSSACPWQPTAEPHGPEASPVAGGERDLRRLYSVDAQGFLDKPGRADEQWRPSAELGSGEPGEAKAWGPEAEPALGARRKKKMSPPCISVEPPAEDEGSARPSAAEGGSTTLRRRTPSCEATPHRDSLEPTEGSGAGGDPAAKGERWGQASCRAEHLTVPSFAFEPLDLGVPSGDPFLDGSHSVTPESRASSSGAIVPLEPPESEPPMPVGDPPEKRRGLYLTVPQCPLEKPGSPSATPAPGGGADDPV
Disintegrin and metalloproteinase domain-containing protein 17, sequence (P78536 whole entry, the tested form may be a part): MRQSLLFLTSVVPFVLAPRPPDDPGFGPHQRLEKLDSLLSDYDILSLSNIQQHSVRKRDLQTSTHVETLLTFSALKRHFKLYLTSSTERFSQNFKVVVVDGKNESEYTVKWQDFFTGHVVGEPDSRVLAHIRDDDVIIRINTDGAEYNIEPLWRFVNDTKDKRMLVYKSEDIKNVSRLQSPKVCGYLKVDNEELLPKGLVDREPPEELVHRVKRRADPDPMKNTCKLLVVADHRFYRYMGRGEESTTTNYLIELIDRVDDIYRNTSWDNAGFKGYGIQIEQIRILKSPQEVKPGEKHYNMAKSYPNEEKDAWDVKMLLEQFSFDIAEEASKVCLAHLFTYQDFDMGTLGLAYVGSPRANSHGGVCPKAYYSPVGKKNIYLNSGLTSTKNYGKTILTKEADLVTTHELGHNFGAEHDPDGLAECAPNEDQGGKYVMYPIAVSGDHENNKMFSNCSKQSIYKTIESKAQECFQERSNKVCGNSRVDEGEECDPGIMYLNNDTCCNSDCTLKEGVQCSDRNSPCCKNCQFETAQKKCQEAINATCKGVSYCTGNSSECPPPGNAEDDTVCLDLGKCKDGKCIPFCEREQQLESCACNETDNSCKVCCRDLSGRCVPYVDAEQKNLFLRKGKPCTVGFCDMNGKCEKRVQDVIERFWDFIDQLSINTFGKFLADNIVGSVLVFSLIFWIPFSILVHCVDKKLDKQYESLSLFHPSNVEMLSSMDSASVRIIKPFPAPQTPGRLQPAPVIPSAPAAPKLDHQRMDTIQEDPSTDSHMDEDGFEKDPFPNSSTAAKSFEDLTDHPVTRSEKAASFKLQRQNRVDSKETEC
Paired box protein Pax-8, sequence (Q06710 whole entry): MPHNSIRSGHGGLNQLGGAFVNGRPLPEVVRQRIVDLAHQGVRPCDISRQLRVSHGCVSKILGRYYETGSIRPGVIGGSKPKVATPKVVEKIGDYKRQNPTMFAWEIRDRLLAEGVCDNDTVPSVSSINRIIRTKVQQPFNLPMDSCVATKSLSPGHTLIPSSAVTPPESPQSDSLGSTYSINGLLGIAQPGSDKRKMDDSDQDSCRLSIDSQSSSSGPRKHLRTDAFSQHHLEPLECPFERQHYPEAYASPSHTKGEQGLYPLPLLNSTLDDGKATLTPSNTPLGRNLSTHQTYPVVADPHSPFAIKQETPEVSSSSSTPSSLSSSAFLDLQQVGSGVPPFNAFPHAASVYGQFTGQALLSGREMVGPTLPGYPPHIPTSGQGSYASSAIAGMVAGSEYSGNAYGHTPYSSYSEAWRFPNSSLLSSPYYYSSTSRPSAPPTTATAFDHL
Neurotensin receptor type 1, sequence (P30989 whole entry): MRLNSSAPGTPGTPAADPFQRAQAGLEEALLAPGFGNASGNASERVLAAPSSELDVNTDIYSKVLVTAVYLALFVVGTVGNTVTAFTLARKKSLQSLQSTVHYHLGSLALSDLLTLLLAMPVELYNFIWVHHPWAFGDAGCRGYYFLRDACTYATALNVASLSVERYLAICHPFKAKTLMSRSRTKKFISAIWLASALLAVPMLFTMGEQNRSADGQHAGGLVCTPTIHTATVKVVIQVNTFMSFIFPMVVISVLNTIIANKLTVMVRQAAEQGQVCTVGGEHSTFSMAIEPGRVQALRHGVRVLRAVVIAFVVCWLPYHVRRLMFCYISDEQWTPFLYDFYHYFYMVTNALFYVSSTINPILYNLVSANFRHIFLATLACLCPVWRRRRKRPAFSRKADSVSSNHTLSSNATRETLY

Compound: OC(CNCC(c1ccc(Cl)cc1Cl)c1c[nH]c2ccccc12)c1ccccc1 (configuration not stated)
- CC50 [1]: 6.04 µM (active)
- IC50 [2]: 11.4 µM (not active)
- CC50 [3]: 6.38 µM (active)
- AC50 [4]: 2.12 µM (active)
- CC50 [5]: 7.75 µM (active)
- CC50 [6]: 6.27 µM (active)
- EC50 [7]: 15.2 µM (active)
- AC50 [8]: 14.7 µM (active)
- IC50 (cells): 12.3 µM (active)
- AC50 (A-375): 14.8 µM (active)
- AC50 (Paired box protein Pax-8): 11.2 µM (active)
- IC50 [9]: 13.4 µM (inactive)
- AC50 [10]: 8.71 µM (active)
- AC50 [11]: 8.61 µM (active)
- AC50 [12]: 19.2 µM (active)
- AC50 [13]: 38.2 µM (active)
- AC50 [14]: 21.1 µM (active)
- IC50 [15]: > 69.5 µM (inactive)
- AC50 [16]: 14.2 µM (active)

Compound: CCOC(=O)/C(C#N)=C/Nc1cc(OC)ccc1OC
- EC50 (Caspase-3): > 85.3 µM (inactive)
- EC50 (Caspase-7): > 85.3 µM (inactive)

Compound: COc1ccc(C(=O)Nc2nc(-c3cccs3)cs2)cc1
- IC50 (Prothrombin): 1.14 µM (active)
- EC50 [17]: 1.08 µM (active)
- EC50 [18]: 5.31 µM (active)
- EC50 [19]: 1.1 µM (active)
- IC50 (Coagulation factor XII): > 50 µM (inactive)
- IC50 (Protein skinhead-1): 57.1 µM (inactive)
